In the assay the test system is ATF4 luciferase reporter (human full-length ATF4 5'-UTR fused to firefly luciferase) in HEK293T cells. As to the kind of experiment: ATF4-Luc assay (in vitro model of VWMD): HEK293T cells carrying ATF4 luciferase reporter, tunicamycin-treated. The following applies: Homo sapiens, HEK-293T, 1 μg/mL tunicamycin, 7 hours, One Glo luminescence. The format is cell-based. On the procedure:
In order to test exemplary compounds of the invention in a cellular context, a stable VWMD cell line was first constructed. The ATF4 reporter was prepared by fusing the human full-length ATF4 5′-UTR (NCBI Accession No. BC022088.2) in front of the firefly luciferase (FLuc) coding sequence lacking the initiator methionine as described in Sidrauski et al (eLife 2013). The construct was used to produce recombinant retroviruses using standard methods and the resulting viral supernatant was used to transduce HEK293T cells, which were then subsequently selected with puromycin to generate a stable cell line.
HEK293T cells carrying the ATF4 luciferase reporter were plated on polylysine coated 384-well plates (Greiner Bio-one) at 30,000 cells per well. Cells were treated the next day with 1 μg/mL tunicamycin and 200 nM of a compound of Formula (I) for 7 hours. Luminescence was measured using One Glo (Promega) as specified by the manufacturer. Cells were maintained in DMEM with L-glutamine supplemented with 10% heat-inactivated FBS (Gibco) and Antibiotic-Antimycotic solution (Gibco).
Table 2 below summarizes the EC50 data obtained using the ATF4-Luc assay for exemplary compounds of the invention.
A general note: In a reporter assay the amount or activity of a reporter protein is the signal.
With `O=C(NC12CCC(NC(=O)[C@H]3C[C@@H](O)c4cc(Cl)ccc4O3)(C1)C2)c1ccc(OC(F)(F)F)cn1` (racemic) [Compound 293, N-(4-{[rac-(2R,4R)-6-chloro-4-hydroxy-3,4-dihydro-2H-1-benzopyran-2-carbonyl]amino}bicyclo[2.1.1]hexan-1-yl)-5-(trifluoromethoxy)pyridine-2-carboxamide], the EC50 was in the range of 0.01 to 0.05 µM. Under `O=C(COc1cnc(C(F)(F)F)nc1)NC12CC(NC(=O)[C@H]3C[C@@H](O)c4cc(Cl)ccc4O3)(C1)C2` [Compound 228, (2R,4R)-6-chloro-4-hydroxy-N-[3-(2-{[2-(trifluoromethyl)pyrimidin-5-yl]oxy}acetamido)bicyclo[1.1.1]pentan-1-yl]-3,4-dihydro-2H-1-benzopyran-2-carboxamide] stands 0.01 to 0.05 µM; under `O=C(COc1ccc(Cl)c(F)c1)NC12CC(NC(=O)[C@H]3C[C@H](NCC(F)(F)F)c4cc(Cl)ccc4O3)(C1)C2` [Compound 327, (2R,4S)-6-chloro-N-{3-[2-(4-chloro-3-fluorophenoxy)acetamido]bicyclo[1.1.1]pentan-1-yl}-4-[(2,2,2-trifluoroethyl)amino]-3,4-dihydro-2H-1-benzopyran-2-carboxamide], 0.05 to 0.25 µM. Turning to `O=C(COc1ccc(F)c(F)c1)NC12CC(NC(=O)[C@@H]3C[C@H](O)c4cc(F)c(F)cc4O3)(C1)C2` [Compound 273, (2S,4S)—N-{3-[2-(3,4-difluorophenoxy)acetamido]bicyclo[1.1.1]pentan-1-yl}-6,7-difluoro-4-hydroxy-3,4-dihydro-2H-1-benzopyran-2-carboxamide], the EC50 was in the range of 0.01 to 0.05 µM. For the compound `O=C(COc1ccc(Cl)c(F)c1)N[C@H]1C[C@H]2C[C@@H]1C[C@@H]2NC(=O)[C@H]1CC(=O)c2cc(Cl)ccc2O1` (mixture of isomers) [Compound 368, (2R)-6-chloro-N-{(1RS,2SR,4RS,5SR)-5-[2-(4-chloro-3-fluorophenoxy)acetamido]bicyclo[2.2.1]heptan-2-yl}-4-oxo-3,4-dihydro-2H-1-benzopyran-2-carboxamide], the EC50 was less than 0.01 µM.

For the compound `Cc1cc2oc(C(=O)NC34CC(NC(=O)COc5ccc(Cl)c(F)c5)(C3)C4)cc(=O)c2cc1C` [Compound 285, N-{3-[2-(4-chloro-3-fluorophenoxy)acetamido]bicyclo[1.1.1]pentan-1-yl}-6,7-dimethyl-4-oxo-4H-1-benzopyran-2-carboxamide], the EC50 is less than 0.01 µM. Take `O=C(COc1ccc(F)c(F)c1)NC12CC(NC(=O)[C@H]3CC(=O)c4cc(Cl)ccc4O3)(C1)C2` [Compound 275, (2R)-6-chloro-N-{3-[2-(3,4-difluorophenoxy)acetamido]bicyclo[1.1.1]pentan-1-yl}-4-oxo-3,4-dihydro-2H-1-benzopyran-2-carboxamide]: the EC50 is less than 0.01 µM. As for `CNC1CC(C(=O)NC23CC(NC(=O)COc4ccc(Cl)c(F)c4)(C2)C3)Oc2ccc(Cl)cc21` (stereo not drawn) [Compound 314, 6-chloro-N-{3-[2-(4-chloro-3-fluorophenoxy)acetamido]bicyclo[1.1.1]pentan-1-yl}-4-(methylamino)-3,4-dihydro-2H-1-benzopyran-2-carboxamide], the half-maximal effective concentration (EC50) is less than 0.01 µM. Turning to `O=C(COc1ccc(Cl)c(F)c1)N[C@@H]1C[C@@H]2O[C@H]1C[C@H]2NC(=O)[C@@H]1C[C@@H](O)c2cc(Cl)ccc2O1` (racemic) [Compound 369, (2S,4R)-6-chloro-N-{(1RS,2SR,4RS,5SR)-5-[2-(4-chloro-3-fluorophenoxy)acetamido]-7-oxabicyclo[2.2.1]heptan-2-yl}-4-hydroxy-3,4-dihydro-2H-1-benzopyran-2-carboxamide], the EC50 fell in the range of 0.01 to 0.05 µM. For `O=C(COc1ccc(Cl)c(F)c1)NC12CC(NC(=O)C3COc4cc(Cl)ccc4C3)(C1)C2` (stereo not drawn) [Compound 345, 7-chloro-N-{3-[2-(4-chloro-3-fluorophenoxy)acetamido]bicyclo[1.1.1]pentan-1-yl}-3,4-dihydro-2H-1-benzopyran-3-carboxamide], the EC50 is greater than 2 µM. As for `O=C(COc1ccc(Cl)c(F)c1)N[C@@H]1C[C@@H]2C[C@H]1C[C@H]2NC(=O)[C@H]1C[C@@H](O)c2cc(Cl)ccc2O1` (racemic) [Compound 371, (2R,4R)-6-chloro-N-{(1RS,2SR,4RS,5SR)-5-[2-(4-chloro-3-fluorophenoxy)acetamido]bicyclo[2.2.1]heptan-2-yl}-4-hydroxy-3,4-dihydro-2H-1-benzopyran-2-carboxamide], the half-maximal effective concentration (EC50) was less than 0.01 µM. For the compound `Cc1cc2oc(C(=O)NC34CC(NC(=O)COc5ccc(Cl)c(F)c5)(C3)C4)cc(=O)c2cc1Cl` [Compound 236, 6-chloro-N-{3-[2-(4-chloro-3-fluorophenoxy)acetamido]bicyclo[1.1.1]pentan-1-yl}-7-methyl-4-oxo-4H-1-benzopyran-2-carboxamide], the concentration giving a half-maximal response (EC50) is less than 0.01 µM. With `O=C(COc1ccc(F)c(F)c1)NC12CC(NC(=O)[C@H]3C[C@@H](O)c4cc(F)c(F)cc4O3)(C1)C2` [Compound 272, (2R,4R)—N-{3-[2-(3,4-difluorophenoxy)acetamido]bicyclo[1.1.1]pentan-1-yl}-6,7-difluoro-4-hydroxy-3,4-dihydro-2H-1-benzopyran-2-carboxamide], the EC50 is less than 0.01 µM. Under `O=C(COc1ccc(Cl)c(F)c1)NC12CC(NC(=O)c3cc(=O)c4ccc5c(c4o3)OCO5)(C1)C2` [Compound 291, N-{3-[2-(4-chloro-3-fluorophenoxy)acetamido]bicyclo[1.1.1]pentan-1-yl}-6-oxo-2H,6H-[1,3]dioxolo[4,5-h][1]benzopyran-8-carboxamide] stands 0.05 to 0.25 µM. Under `Cc1csc(C(=O)NC23CCC(NC(=O)[C@H]4C[C@@H](O)c5cc(Cl)ccc5O4)(CC2)[C@@H](O)C3)n1` [Compound 344, N-[(3S)-4-{[(2R,4R)-6-chloro-4-hydroxy-3,4-dihydro-2H-1-benzopyran-2-carbonyl]amino}-3-hydroxybicyclo[2.2.2]octan-1-yl]-4-methyl-1,3-thiazole-2-carboxamide] stands 0.05 to 0.25 µM.

As for `O=C(COc1cc(F)c2cn[nH]c2c1)NC12CC(NC(=O)[C@H]3C[C@@H](O)c4cc(Cl)ccc4O3)(C1)C2` [Compound 351, (2R,4R)-6-chloro-N-(3-{2-[(4-fluoro-1H-indazol-6-yl)oxy]acetamido}bicyclo[1.1.1]pentan-1-yl)-4-hydroxy-3,4-dihydro-2H-1-benzopyran-2-carboxamide], the EC50 was less than 0.01 µM. Next, `O=C(COc1ccc(Cl)c(F)c1)NC12CC(NC(=O)C3CC(O)c4ccc(F)cc4O3)(C1)C2` (stereo not drawn) [Compound 222, N-{3-[2-(4-chloro-3-fluorophenoxy)acetamido]bicyclo[1.1.1]pentan-1-yl}-7-fluoro-4-hydroxy-3,4-dihydro-2H-1-benzopyran-2-carboxamide]: less than 0.01 µM. In the case of `CCc1ncc(C(=O)NC23CC(NC(=O)[C@H]4C[C@@H](O)c5cc(Cl)ccc5O4)(C2)C3)o1` [Compound 384, N-(3-{[(2R,4R)-6-chloro-4-hydroxy-3,4-dihydro-2H-1-benzopyran-2-carbonyl]amino}bicyclo[1.1.1]pentan-1-yl)-2-ethyl-1,3-oxazole-5-carboxamide], the EC50 is 0.05 to 0.25 µM.

As to `C[C@@]1(C(=O)NC23CC(NC(=O)COc4ccc(Cl)c(F)c4)(C2)C3)Cc2cc(Cl)ccc2O1` [Compound 257, (2S)-5-chloro-N-{3-[2-(4-chloro-3-fluorophenoxy)acetamido]bicyclo[1.1.1]pentan-1-yl}-2-methyl-2,3-dihydro-1-benzofuran-2-carboxamide], the EC50 was greater than 2 µM. For the compound `C[C@@]1(C(=O)NC23CC(NC(=O)COc4ccc(Cl)c(F)c4)(C2)C3)Oc2ccc(Cl)cc2C1=O` [Compound 320, (2R)-5-chloro-N-{3-[2-(4-chloro-3-fluorophenoxy)acetamido]bicyclo[1.1.1]pentan-1-yl}-2-methyl-3-oxo-2,3-dihydro-1-benzofuran-2-carboxamide], the EC50 is 0.5 to 2 µM.

For `O=C(COc1ccc(C(F)(F)F)nc1)NC12CC(NC(=O)[C@@H]3C[C@H](O)c4cc(Cl)ccc4O3)(C1)C2` [Compound 299, (2S,4S)-6-chloro-4-hydroxy-N-[3-(2-{[6-(trifluoromethyl)pyridin-3-yl]oxy}acetamido)bicyclo[1.1.1]pentan-1-yl]-3,4-dihydro-2H-1-benzopyran-2-carboxamide], the concentration giving a half-maximal response (EC50) lay within 0.01 to 0.05 µM. As for `O=C(NC12CCC(NC(=O)[C@H]3C[C@@H](O)c4cc(Cl)ccc4O3)(C1)C2)c1ccc(OC(F)(F)F)cn1` [Compound 373, N-(4-{[(2R,4R)-6-chloro-4-hydroxy-3,4-dihydro-2H-1-benzopyran-2-carbonyl]amino}bicyclo[2.1.1]hexan-1-yl)-5-(trifluoromethoxy)pyridine-2-carboxamide], the 50% effective concentration (EC50) was 0.01 to 0.05 µM. Consider `CC(C)c1ccc2oc(C(=O)NC34CC(NC(=O)COc5ccc(Cl)c(F)c5)(C3)C4)cc(=O)c2c1` [Compound 290, N-{3-[2-(4-chloro-3-fluorophenoxy)acetamido]bicyclo[1.1.1]pentan-1-yl}-4-oxo-6-(propan-2-yl)-4H-1-benzopyran-2-carboxamide], for which the concentration giving a half-maximal response (EC50) lay in the range of 0.01 to 0.05 µM. As to `O=C(NC12CC(NC(=O)[C@H]3CC(=O)c4cc(Cl)ccc4O3)(C1)C2)c1ccc(OC(F)(F)F)cn1` [Compound 379, N-(3-{[(2R)-6-chloro-4-oxo-3,4-dihydro-2H-1-benzopyran-2-carbonyl]amino}bicyclo[1.1.1]pentan-1-yl)-5-(trifluoromethoxy)pyridine-2-carboxamide], the concentration giving a half-maximal response (EC50) is 0.5 to 2 µM.

By EC50 is commonly meant the concentration that produces a half-maximal response.

Source of the values: patent US20240018133A1, “MODULATORS OF THE INTEGRATED STRESS PATHWAY” (Calico Life Sciences LLC, priority 2019, published 2024).
